{
  "source": "patent US8865657B2",
  "about": "“Compositions and methods for inactivating or suppressing inflammatory cells” (New York University, priority 2005, dated 2014)",
  "key": {"Kupffer cells [1]": {"test_system": "Kupffer cells", "assay": "Zymosan-induced respiratory burst (ROS) in Kupffer cells, luminol- or lucigenin-enhanced chemiluminescence", "source_text": "Liver cell isolation. Liver cells were isolated from female Sprague Dawley rats (230-250 g). Livers were perfused with collagenase as described by Neufeld (Neufeld DS (1997) Isolation of rat liver hepatocytes. Methods in Molecular Biology, Vol 75: Basic Cell Culture Protocols 75: 145-151). Subsequently, liver cells were purified by a combined differential and Percoll gradient centrifugation using a Sorvall HS4 swinging bucket rotor (Smedsrod B, Pertoft H (1985) Preparation of pure hepatocytes and reticuloendothelial cells in high yield from a single rat liver by means of Percoll centrifugation and selective adherence. J.Leukocyte Biol 38: 213-230). After filtration through a 100-μm mesh polypropylene filter (Spectra/Mesh; Spectrum, Laguna Hills, Calif.), the cell suspension was centrifuged for 5 minutes at 50 g resulting in a hepatocyte-enriched pellet and a nonparenchymal cell-enriched supernatant. The nonparenchymal cell-containing supernatant was saved. The pellet was resuspended in ice-cold phosphate-buffered saline (PBS) and mixed in an equal volume of PBS-buffered isotonic Percoll. The gradient was centrifuged for 10 minutes at 50 g. The pellet was resuspended in PBS, centrifuged again, and the final pellet was resuspended in RPMI 1640 medium containing 10% FCS. The nonparenchymal cell-enriched supernatants were centrifuged for 15 minutes at 900 g. The pellet was resuspended in ice-cold PBS, layered over a 2-cushion Percoll gradient (Smedsrod B, Pertoft H (1985) Preparation of pure hepatocytes and reticuloendothelial cells in high yield from a single rat liver by means of Percoll centrifugation and selective adherence. J.Leukocyte Biol 38: 213-230) and centrifuged for 30 minutes at 900 g. The intermediate zone, containing mostly liver endothelial cells, and the bottom cushion, containing mostly Kupffer cells, were saved, mixed with PBS, and centrifuged for 15 minutes at 900 g. The pellet was resuspended in PBS with 1% FCS and the cells further separated into various fractions by centrifugal counterflow elutriation (Knook D L, Sleyster E C (1976) Separation of Kupffer and endothelial cells of the rat liver by centrifugal elutriation. Exp Cell Res 99: 444-449) using the Beckman Coulter JE-5.0 elutriator rotor supplied with a Sanderson chamber (Beckman Coulter, Palo Alto, Calif. USA). The cell suspension was introduced into the elutriator at a flow rate of 12 ml/min, and the elutriator speed set to 3250 rpm. Endothelial cells were obtained at a 32 ml/min flow rate, whereas Kupffer cells were collected at 70 ml/min. The cells were centrifuged at 200 g and resuspended in RPMI-1640 medium containing 10% fetal calf serum. The cell purity and viability were above 95% as determined by peroxidase stain and trypan blue exclusion.\nCell culture. Kupffer cells were seeded into 96-well microtiter plates (0.25×10^6 cells/well) or 24-well plates (1.0×10^6 cells/well). Endothelial cells were plated on 24-well plates (1.5×10^6 cells/well), which had been previously coated with type I collagen (Sigma, St. Louis, Mo.). […] All types of cells were cultivated in RPMI 1640 medium supplemented with 10% fetal calf serum (FCS), 25 mM HEPES, and antibiotics (100 U/ml penicillin G and 100 μg/ml streptomycin sulfate) at 37° C. in 5% CO2. Nonadherent cells were removed after 1 h by replacing medium, and the cells were cultured in the same medium for 18 h and then in RPMI-1640 without FCS for 6 h.\nCell treatment. To study the effect of CSP on cell signaling, the cells were incubated with different concentration of CSP for 0-90 min at 37° C. in 5% CO2. Before use, CSP was dialyzed extensively with 150 mM NaCl, 10 mM HEPES, pH 7.4 and diluted in culture medium."}, "Kupffer cells [2]": {"test_system": "Kupffer cells", "assay": "cAMP radioimmunoassay, intracellular cAMP in Kupffer cells", "assay_type": "cell-based, rat", "description": "Liver cell isolation. […] The nonparenchymal cell-containing supernatant was saved.\nCell culture. […] HepG2 cells were used on day 3 after plating.\nCell treatment. […] Role of calcium and cyclic AMP. […] J Immunol 174: 2981-2989). […] IBMX was dissolved in dimethyl sulphoxide (DMSO).\ncAMP radioimmunoassay. For cAMP determination, liver cell cultures were incubated in culture medium without FCS at 37° C. for 0-90 min. The cultures were then placed on ice, and the reaction was stopped by aspiration of the incubation medium followed by the addition of 1 ml of ice cold 65% (vol/vol) ethanol. The cells were scraped into Eppendorf tubes and centrifuged at 10000 g for 10 min at 4° C. The supernatants were dried in SC110 Speedvac Concentrator (Savant, Farmingdale, N.Y.) at room temperature, and the dried extracts were dissolved in assay buffer for cAMP determination with cAMP [^125I] Direct Biotrak Assay from Amersham Biosciences (Piscataway, N.J.), according to the instructions of the manufacturer. Samples were analyzed with a Beckman LS 6000 scintillation counter. The cAMP level in each sample was normalized to the protein concentration and expressed as fmol/μg of protein. Ethanol-precipitated cell pellets were diluted with 0.15 M NaOH and the protein concentration was measured with the Micro BCA Protein Assay Kit (Pierce Chemical Co., Rockford, Ill.) according to manufacturer's instructions."}},
  "note": "Like-named read-outs stand apart in the source and are kept apart here.",
  "data": [
    {"smiles": "CCCC(=O)Nc1ncnc2c1ncn2[C@@H]1O[C@@H]2COP(=O)(O)O[C@H]2[C@H]1O", "note": "[6-MB-cAMP, N6-monobutyryladenosine-3′,5′-cAMP]", "values": [
      {"measurement": "effect on zymosan-induced ROS formation", "setting": "Kupffer cells [1]; 3 mM, pretreated 40 minutes, luminol-enhanced chemiluminescence", "value": "had no effect"}
    ]},
    {"smiles": "CO[C@@H]1[C@@H]2OP(=O)(O)OC[C@H]2O[C@H]1n1c(Sc2ccc(Cl)cc2)nc2c(N)ncnc21", "note": "[8-CPT-2-Me-cAMP, 8-[4-chlorophenylthio]-2′-O-methyladenosine-3′,5′-cAMP]", "values": [
      {"measurement": "effect on zymosan-induced ROS formation", "setting": "Kupffer cells [1]", "value": "inhibited"}
    ]},
    {"smiles": "[O-][Cl+2]([O-])O", "note": "[Chlorate, sodium chlorate, reference compound]", "values": [
      {"measurement": "inhibition at 20000 µM", "setting": "Kupffer cells [2]; Rattus norvegicus, read-out: inhibition of the CSP-induced generation of cAMP", "value": 20, "unit": "%"}
    ]},
    {"smiles": "Cl.Cl.O=S(=O)(NCCNCC=Cc1ccc(Br)cc1)c1cccc2cnccc12", "note": "[H-89, N-[2-(p-Bromocinnamylamino)ethyl]-5-isoquinolinesulfonamide dihydrochloride]", "values": [
      {"measurement": "effect on the CSP-mediated inhibition of the respiratory burst", "setting": "Kupffer cells [1]", "value": "failed to prevent"}
    ]},
    {"smiles": "CC(C)Cn1c(=O)n(C)c(=O)c2[nH]cnc21", "note": "[IBMX, 3-isobutyl-1 methylxanthine, reference compound]", "values": [
      {"measurement": "effect on the CSP-induced generation of cAMP", "setting": "Kupffer cells [2]; added 10 min before 50 nM CSP (30 min), RAP 500 nM", "value": "did not reduce"},
      {"measurement": "inhibition at 1000 µM", "setting": "Kupffer cells [1]; Rattus norvegicus, read-out: inhibition of the zymosan-induced respiratory burst", "value": 67, "unit": "%"}
    ]},
    {"smiles": "C[C@]12N[C@H](Cc3ccccc31)c1ccccc12", "note": "[MK-801]", "values": [
      {"measurement": "effect on the CSP-mediated inhibition of the respiratory burst", "setting": "Kupffer cells [1]", "value": "had no effect"}
    ]},
    {"smiles": "Nc1ncnc2c1ncn2C1CCCO1", "note": "(stereo not drawn) [SQ 22,536, 9-(Tetrahydro-2-furanyl)-9H-purin-6-amine]", "values": [
      {"measurement": "effect on the inhibition of the zymosan-induced respiratory burst by sporozoites", "setting": "Kupffer cells [1]; 100 μM SQ 22,536 with P. yoelii sporozoites", "value": "abrogated the inhibitory effect"}
    ]},
    {"smiles": "CCCC(=O)Nc1ncnc2c1ncn2[C@@H]1O[C@@H]2COP(=O)(O)O[C@H]2[C@H]1OC(=O)CCC", "note": "[db-cAMP, dibutyryl cAMP]", "values": [
      {"measurement": "inhibition of the zymosan-induced respiratory burst", "setting": "Kupffer cells [1]; 1 mM IBMX or 1 mM db-cAMP, luminol-enhanced chemiluminescence", "value": 22, "unit": "%"}
    ]}
  ]
}
